Patent US5229412A, “Method for relieving anxiety using 5-hydroxytryptamine-1A-receptor-binding compounds” (The Board of Trustees of the Leland Stanford Junior …, priority 1988, dated 1993)

What was measured:
5-HT1A receptors = settings: background statement; cited from earlier work
5-HT1A = biological target: T1, 5-HT1A (Rattus norvegicus, UniProt P19327); assay: Radioligand binding, 5-HT1A sites labeled by ^3 H-8-OH-DPAT, rat cortex; settings: for IC50: mean ± standard error of 3-4 experiments
T1 construct: rat brain were purchased from Pel-Freez; tissue Pel-Freez (Roger, AR); host or cells: rat brain (cortex) membranes
T1 sequence (P19327 1-422): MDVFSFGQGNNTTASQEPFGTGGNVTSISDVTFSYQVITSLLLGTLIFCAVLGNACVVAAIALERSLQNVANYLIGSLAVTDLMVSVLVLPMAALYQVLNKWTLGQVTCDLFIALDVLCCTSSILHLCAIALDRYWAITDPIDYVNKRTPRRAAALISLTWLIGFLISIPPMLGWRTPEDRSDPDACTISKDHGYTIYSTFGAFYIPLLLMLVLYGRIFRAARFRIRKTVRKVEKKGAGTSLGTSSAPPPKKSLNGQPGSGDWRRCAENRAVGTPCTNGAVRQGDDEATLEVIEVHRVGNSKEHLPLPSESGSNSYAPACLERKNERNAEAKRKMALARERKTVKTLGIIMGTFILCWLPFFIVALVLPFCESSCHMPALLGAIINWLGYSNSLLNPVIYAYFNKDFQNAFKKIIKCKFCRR
Protocol: (§1) Radioligand binding studies were performed described in Peroutka et al., Molecular Pharmacology (1979) 16:687-699. Briefly, rat brain were purchased from Pel-Freez (Roger, AR). On the day of study, the samples were thawed in Tris-HCl buffer. Tissues were homogenized in 20 volumes Tris-HCl buffer (pH 7.7 at 25° C.) using a Brinkmann Polytron and then centrifuged in an IEC B20A centrifuge at 49,000×g for 10 min. The supernatant was discarded, and the pellet was resuspended in the same volume of Tris-HCl buffer and incubated at 37° C. for 10 min prior to a second centrifugation at 49,000×g for 10 min. The final pellet was resuspended in 80 volumes of Tris-HCl buffer containing 10 μM pargyline, 4 mM calcium chloride and 0.1% ascorbic acid. The suspensions were immediately used in the binding assay. […] Following incubation at 25° C. for 30 minutes, the assays were rapidly filtered under vacuum through #32 glass filters (Schleicher and Scheull: Keene, NH) with two 5 ml washes using 50 mM Tris-HCl buffer. Radioactivity was measured by liquid scintillation spectroscopy in ml of 3a70 Counting Cocktail (Research Products International: Mt. Prospect, IL) at 54% efficiency. […] All drugs were diluted and dissolved in assay buffer.
(§2) Each experiment was performed in triplicate and repeated 3 to 6 times.

non-5-HT1A = assay: Radioligand binding, non-5-HT1A sites labeled by ^3 H-5-HT + 100 nM 8-OH-DPAT, rat cortex; settings: for potency at non-5-HT1A binding sites (in words) / IC50: rat cortex; for IC50: read-out: Drug Potency (IC50) non-5-HT1A (^3 H-5-HT + 100 nM 8-OH-DPAT), mean ± standard error of 3-4 experiments
Protocol: as §1, with “Briefly,” for “Radioligand binding studies were performed described in Peroutka et al., Molecular Pharmacology (1979) 16:687-699. Briefly,”, “buffer.” for “buffer. Radioactivity was measured by liquid scintillation spectroscopy in ml of 3a70 Counting Cocktail (Research Products International: Mt. Prospect, IL) at 54% efficiency.”
as §2

5-HT2 = biological target: T2, 5-HT2 (Rattus norvegicus, UniProt P14842); assay: Radioligand binding, 5-HT2 sites labeled by ^3 H-spiperone, rat cortex; settings: for IC50: mean ± standard error of 3-4 experiments
T2 construct: rat brain were purchased from Pel-Freez; tissue Pel-Freez (Roger, AR); host or cells: rat brain (cortex) membranes
T2 sequence (P14842 whole entry): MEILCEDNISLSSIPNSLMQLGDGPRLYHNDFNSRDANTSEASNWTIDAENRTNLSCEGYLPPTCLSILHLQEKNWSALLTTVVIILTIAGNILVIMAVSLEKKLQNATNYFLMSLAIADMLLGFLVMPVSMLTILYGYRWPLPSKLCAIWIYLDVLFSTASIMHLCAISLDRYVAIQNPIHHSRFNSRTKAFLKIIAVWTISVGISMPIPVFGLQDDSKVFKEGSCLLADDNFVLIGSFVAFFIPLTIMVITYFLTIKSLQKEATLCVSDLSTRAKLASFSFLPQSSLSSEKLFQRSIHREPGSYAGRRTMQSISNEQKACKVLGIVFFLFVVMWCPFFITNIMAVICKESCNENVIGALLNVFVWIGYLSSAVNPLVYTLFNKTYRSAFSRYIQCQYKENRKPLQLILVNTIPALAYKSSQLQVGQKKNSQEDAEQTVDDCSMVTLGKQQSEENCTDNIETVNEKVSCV
Protocol: as §1, §2

β-adrenergic receptors = assay: Radioligand binding, β-adrenergic receptors labeled by ^3 H-dihydroalprenolol (^3 H-DHA), rat cortex; settings: for IC50: mean ± standard error of 3-4 experiments, read-out: Drug Potency (IC50) β-adrenergic (^3 H-DHA); for potency at β-adrenergic receptors relative to 5-HT1A (in words): labeled by ^3 H-DHA
Protocol: as §1, §2

[1] = Stability of Compounds 8-11 on storage; type: physicochemical; settings: methanol; 10 mg/ml, 20° C., 'too months'; read-out: decomposition in methanolic solution
Protocol: Methanolic solutions (10 mg/ml) are suitable storage forms.

Row | Structure (SMILES) | inhibition of [^3 H]-8-OH-DPAT binding to 5-HT1A receptors (in words) (5-HT1A receptors) | potency at the 5-HT1A binding site (in words) (5-HT1A) | IC50 (5-HT1A) | potency at non-5-HT1A binding sites (in words) (non-5-HT1A) | IC50 (non-5-HT1A) | potency at 5-HT2 binding sites (in words) (5-HT2) | selectivity for β-adrenergic receptors (in words) (β-adrenergic receptors) | IC50 (β-adrenergic receptors) | IC50 (5-HT2) | degraded at 1460 h [1] | potency at β-adrenergic receptors relative to 5-HT1A (in words) (β-adrenergic receptors) | Kd (non-5-HT1A; used for Ki calculation)
1 | O=C1c2ccccc2S(=O)(=O)N1CCCCN1CCN(c2ncccn2)CC1 [TVX Q 7821] | potent inhibitors |  |  |  |  |  |  |  |  |  |  | 
2 | CC(C)(NC(=O)C1=CC2C=CC1CC2)[C@H]1CC[C@@](C)(NCC(O)COc2cccc3[nH]ccc23)CC1 (some centres unmarked) [Compound 14] |  | similar, though less potent, affinity | 26 ± 8 nM | least potent | 46 ± 10 nM | least potent | most selective for β-adrenergic receptors | 4.2 ± 2 nM |  |  |  | 
3 | CN1CCC(=C2c3ccccc3CCc3sccc32)CC1 [pizotifen] | potent inhibitors |  |  |  |  |  |  |  |  |  |  | 
4 | CC(C)NC[C@H](O)COc1cccc2ccccc12 [(-)-propranolol] | potent inhibitors |  |  |  |  |  |  |  |  |  |  | 
5 | COC(=O)/C=C/C(=O)NC(C)(C)[C@H]1CC[C@@](C)(NCC(O)COc2cccc3[nH]ccc23)CC1 (some centres unmarked) [Compound 12] |  | similar, though less potent, affinity | 31 ± 8 nM | least potent | 270 ± 50 nM | least potent | most selective for β-adrenergic receptors | 2.8 ± 0.5 nM | 1100 ± 500 nM |  |  | 
6 | CC(C)(NCC(O)COc1cccc2[nH]c(C#N)cc12)[C@H]1CC[C@@](C)(NC(=O)CBr)CC1 (some centres unmarked) [Compound 11] |  | similar, though less potent, affinity | 5.3 ± 2 nM | least potent | 410 ± 200 nM | least potent |  | 1.1 ± 0.02 nM | 4400 ± 2000 nM | < 5% |  | 
7 | O=C1CC2(CCCC2)CC(=O)N1CCCCN1CCN(c2ncccn2)CC1 [Buspirone] | potent inhibitors |  |  |  |  |  |  |  |  |  |  | 
8 | CC(C)(NCC(O)COc1cccc2[nH]ccc12)[C@H]1CC[C@@](C)(NC(=O)CBr)CC1 (some centres unmarked) [Compound 9, N^1 (Bromoacetyl)-N^8-[3-(4-indolyloxy)-2-hydroxypropyl]-(Z)-1,8-diamino-p-menthane] |  | extremely potent | 0.71 ± 0.02 nM | approximately less potent | 430 ± 200 nM | approximately less potent |  | 5.6 ± 0.5 nM | 4000 ± 500 nM | < 5% | approximately an order of magnitude less potent | 
9 | CC(C)(NC(=O)CBr)[C@H]1CC[C@@](C)(NCC(O)COc2cccc3[nH]ccc23)CC1 (some centres unmarked) [Compound 8, N^8-(Bromoacetyl)-N^1-[3-(4-indolyloxy)-2-hydroxypropyl]-(Z)-1,8-diamino-p-menthane] |  | similar, though less potent, affinity | 6.3 ± 2 nM | least potent | 140 ± 70 nM | least potent |  | 1.3 ± 0.2 nM | 3100 ± 1000 nM | < 5% |  | 
10 | CC(C)(NCC(O)COc1cccc2[nH]ccc12)[C@H]1CC[C@@](C)(NC(=O)C2=CC3C=CC2CC3)CC1 (some centres unmarked) [Compound 15] |  | extremely potent | 1.1 ± 0.1 nM | approximately less potent | 1300 ± 500 nM | approximately less potent |  | 19 ± 9 nM |  |  | approximately an order of magnitude less potent | 
11 | COC(=O)/C=C/C(=O)N[C@]1(C)CC[C@H](C(C)(C)NCC(O)COc2cccc3[nH]ccc23)CC1 (some centres unmarked) [Compound 13] |  | extremely potent | 1.2 ± 0.2 nM | approximately less potent | 2900 ± 800 nM | approximately less potent |  | 10 ± 5 nM | 3600 ± 1000 nM |  | approximately an order of magnitude less potent | 
12 | NCCc1c[nH]c2ccc(O)cc12 [^3 H-5-HT, 5-Hydroxytryptamine] |  |  |  |  |  |  |  |  |  |  |  | 3.2 nM
13 | CC(C)(NC(=O)CBr)[C@H]1CC[C@@](C)(NCC(O)COc2cccc3[nH]c(C#N)cc23)CC1 (some centres unmarked) [Compound 10, N^8-(Bromoacetyl)-N1-[3-[(2-cyano-4-indolyl)oxy]-2-hydroxYpropyl]-(Z)-1,8-diamino-p-menthane] |  |  |  |  |  |  |  |  |  | < 5% |  | 
14 | CN1CCC(=C2c3ccccc3C=Cc3ccccc32)CC1 [cyproheptadine] | potent inhibitors |  |  |  |  |  |  |  |  |  |  | 
